Laboratory results taken from ChEMBL document CHEMBL5620440, “Anti-trypanosomal Lignans Isolated from Salvadoran Peperomia pseudopereskiifolia” (J Nat Prod, 2024).
The source made the active and inactive calls. The rule behind the calls is not given here.

Columns and labels:
[1] = test system: Trypanosoma cruzi; experiment: Antitrypanosomal activity against Trypanosoma cruzi Tulahuen amastigotes infected in human HT-1080 cells assessed as reduction in parasite growth by microscopic analysis; type: functional, organism-based
[2] = Selectivity index, ratio of CC50 for cytotoxicity for human HT-1080 cells to IC50 for antitrypanosomal activity against Trypanosoma cruzi Tulahuen infected in human HT-1080 cells; type: toxicity, cell-based; conditions: read-out: Ratio CC50/IC50
[3] = Cytotoxicity against human HT-1080 cells assessed reduction in cell viability; type: toxicity, cell-based
[4] = test system: Trypanosoma cruzi; experiment: Potency index, ratio of benznidazole IC50 to test compound IC50 for antitrypanosomal activity against Trypanosoma cruzi Tulahuen amastigotes infected in human HT-1080 cells assessed as reduction in parasite growth by microscopic analysis; type: functional

In the case of `COc1ccc([C@@H](O)[C@H]2CO[C@@H](c3ccc(OCc4ccccc4)c(OC)c3)[C@@H]2COC(C)=O)cc1OC`, the IC50 [1] is reported as 2.8 µM, the selectivity ratio [2] is reported as over 35.7 and the CC50 [3] is reported as over 100 µM.
With `COc1c([C@H]2OC[C@H]3[C@H]2CO[C@@H]3c2ccc3c(c2)OCO3)ccc2c1OCO2` the IC50 [1] was 0.4 µM, the “Ratio IC50” value [4] was about 3 and the selectivity ratio [2] was over 250. The CC50 [3] was over 100 µM.
For `CCOc1ccc([C@@H]2OC[C@H]([C@H](O)c3ccc(OC)c(OC)c3)[C@H]2COC(C)=O)cc1OC`, the IC50 [1] was 3.3 µM, the selectivity ratio [2] was over 30.3 and the CC50 [3] was over 100 µM.
With `COc1ccc([C@@H](O)[C@H]2CO[C@@H](c3ccc(OC)c(OC)c3)[C@@H]2CO)cc1OC` the Activity [1] was “inactive”.
`COc1ccc([C@@H](O)[C@H]2CO[C@@H](c3ccc(OC)c(OC)c3)[C@@H]2COC(C)=O)cc1OC` showed an IC50 [1] of 10.5 µM, a selectivity ratio [2] of over 9.52 and a CC50 [3] of over 100 µM.
With `COc1cc([C@@H]2OC[C@H]([C@H](O)c3ccc(OC)c(OC)c3)[C@H]2COC(C)=O)ccc1O` the Activity [1] was “inactive”.
In the case of `CCOc1ccc([C@@H]2OC[C@H](C(=O)c3ccc(OC)c(OC)c3)[C@H]2COC(C)=O)cc1OC`, the Activity [1] is reported as “inactive”.
`O=C(Cn1ccnc1[N+](=O)[O-])NCc1ccccc1` [BENZNIDAZOLE] showed an IC50 [1] of 1.1 µM, a selectivity ratio [2] of over 90.9 and a CC50 [3] of over 100 µM.
In the case of `COc1cc([C@@H]2OC[C@H]([C@H](O)c3ccc(OC)c(OC)c3)[C@H]2CO)ccc1O`, the Activity [1] is reported as “inactive”.
